This note sets out measurements from patent US9765056B2, “Indole and pyrrole compounds, a process for their preparation and pharmaceutical compositions containing them” (LES LABORATOIRES SERVIER, priority 2013, dated 2017).

In one experiment the target is Bcl-2 protein (histag-Bcl-2, UniProtKB P10415) (Homo sapiens (Human), UniProt P10415). Nature of the experiment: Inhibition of Bcl-2 by the fluorescence polarisation technique. In kind it is binding. The settings on record: fluorescence polarisation test; method A, or method B where underlined (underlining not visible); read-out: IC50 (nM) Bcl-2 FP. The source says: Inhibition of Bcl-2 by the fluorescence polarisation technique
Chain of Bcl-2 protein (P10415 whole entry): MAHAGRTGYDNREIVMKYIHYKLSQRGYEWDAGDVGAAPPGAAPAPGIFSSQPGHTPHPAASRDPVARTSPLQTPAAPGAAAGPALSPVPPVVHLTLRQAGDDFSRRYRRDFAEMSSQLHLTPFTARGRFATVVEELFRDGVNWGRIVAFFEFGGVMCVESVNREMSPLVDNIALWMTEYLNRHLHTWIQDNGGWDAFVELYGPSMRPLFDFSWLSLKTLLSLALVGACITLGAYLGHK

The test system of experiment [1] is RS4;11 leukaemia tumour line. Briefly: In vitro cytotoxicity, Microculture Tetrazolium Assay (MTT). In kind it is cell-based. The note with it: Homo sapiens; RS4;11 cells, 48 hours exposure. The method, then:
The cytotoxicity studies were carried out on the RS4;11 leukaemia tumour line.
The cells are distributed onto microplates and exposed to the test compounds for 48 hours. The cell viability is then quantified by a colorimetric assay, the Microculture Tetrazolium Assay (Cancer Res., 1987, 47, 939-942).

Experiment [2] has as its system cleaved form of caspase 3. Briefly: Quantification of the cleaved form of caspase 3 in vivo (MSD ELISA) in RS4;11 xenograft tumour lysates. Further details: species or system mice (SCID strain). The note with it: oral route. The method, then:
Quantification of the Cleaved Form of Caspase 3 In Vivo
The ability of the compounds of the invention to activate caspase 3 is evaluated in a xenograft model of RS4;11 leukaemia cells.
1×10^7 RS4;11 cells are grafted subcutaneously into immunosuppressed mice (SCID strain). 25 to 30 days after the graft, the animals are treated orally with the various compounds. After treatment, the tumour masses are recovered (after a time period T) and lysed, and the cleaved (activated) form of caspase 3 is quantified in the tumour lysates.
This quantification is carried out using the “Meso Scale Discovery (MSD) ELISA platform” test, which specifically assays the cleaved form of caspase 3. It is expressed in the form of an activation factor corresponding to the ratio between the quantity of cleaved caspase 3 in the treated mice divided by the quantity of cleaved caspase 3 in the control mice.

[3] abbreviates: 25 mg/kg, tumour removed after 2 h.

Structures can show the parent of a compound that is named as a salt.

Take `Cl.O=C(c1cn(-c2cc3c(cc2C(=O)N2Cc4ccccc4C[C@H]2CN2CCOCC2)OCO3)c2ccccc12)N(c1ccccc1)c1ccc(O)cc1` [Example 184, N-(4-Hydroxyphenyl)-1-{6-[(3S)-3-(morpholin-4-ylmethyl)-1,2,3,4-tetrahydroisoquinoline-2-carbonyl]-2H-1,3-benzodioxol-5-yl}-N-phenyl-1H-indole-3-carboxamide hydrochloride]: the IC50 on Bcl-2 protein was 14.1 nM; in experiment [1] it was 154 nM. Also, the “Activation factor ± SEM (versus control), cleaved caspase 3 MSD test” value (from here on “Activation factor ± SEM (versus control)”) in experiment [2] (100 mg/kg, tumour removed after 16 h) was 15.1.
`COc1cc(-n2cc(C(=O)N(c3ccc(O)cc3)c3ccc(F)cc3)c3ccccc32)c(C(=O)N2Cc3ccccc3C[C@H]2CN2CCN(C)CC2)cc1O` [Example 201, N-(4-Fluorophenyl)-1-{4-hydroxy-5-methoxy-2-[(3S)-3-[(4-methylpiperazin-1-yl)methyl]-1,2,3,4-tetrahydroisoquinoline-2-carbonyl]phenyl}-N-(4-hydroxyphenyl)-1H-indole-3-carboxamide dihydrochloride]: the values for the IC50 (at Bcl-2 protein; in experiment [1]) were 3.1 nM and 124 nM, respectively.
In the case of `COc1cc(-n2cc(C(=O)N(c3ccc(O)cc3)c3ccc4[nH]ccc4c3)c3ccccc32)c(C(=O)N2Cc3ccccc3C[C@H]2CN2CCN(C)CC2)cc1O` [Example 202, 1-{4-Hydroxy-5-methoxy-2-[(3S)-3-[(4-methylpiperazin-1-yl)methyl]-1,2,3,4-tetrahydroisoquinoline-2-carbonyl]phenyl}-N-(4-hydroxyphenyl)-N-(1H-indol-5-yl)-1H-indole-3-carboxamide], the IC50 was determined as 4.4 nM at Bcl-2 protein and 798 nM in experiment [1].
As to `CCCCN(C(=O)c1cn(-c2cc(OC)c(O)cc2C(=O)N2Cc3ccccc3C[C@H]2CN2CCN(C)CC2)c2ccccc12)c1ccc(O)cc1` [Example 203, N-Butyl-1-{4-hydroxy-5-methoxy-2-[(3S)-3-[(4-methylpiperazin-1-yl)methyl]-1,2,3,4-tetrahydroisoquinoline-2-carbonyl]phenyl}-N-(4-hydroxyphenyl)-1H-indole-3-carboxamide dihydrochloride], the IC50 on Bcl-2 protein worked out at 10 nM; in experiment [1], 454 nM.
The matching figures for `COc1cc(-n2cc(C(=O)N(c3ccc(O)cc3)C3CCCCC3)c3ccccc32)c(C(=O)N2Cc3ccccc3C[C@H]2CN2CCN(C)CC2)cc1O` [Example 204, N-Cyclohexyl-1-{4-hydroxy-5-methoxy-2-[(3S)-3-[(4-methylpiperazin-1-yl)methyl]-1,2,3,4-tetrahydroisoquinoline-2-carbonyl]phenyl}-N-(4-hydroxyphenyl)-1H-indole-3-carboxamide dihydrochloride]: 4.7 nM and 780 nM.
As to `COc1ccc(C(=O)N2Cc3ccccc3C[C@H]2CN2CCN(C)CC2)c(-n2cc(C(=O)N(c3ccc(O)cc3)c3ccc4c(ccn4C)c3)c3ccccc32)c1` [Example 205, N-(4-Hydroxyphenyl)-1-{5-methoxy-2-[(3S)-3-[(4-methylpiperazin-1-yl)methyl]-1,2,3,4-tetrahydroisoquinoline-2-carbonyl]phenyl}-N-(1-methyl-1H-indol-5-yl)-1H-indole-3-carboxamide], the IC50 at Bcl-2 protein was 4.3 nM; in experiment [1] it was 123 nM.
The matching figures for `Cc1cc(C(=O)N(c2ccc(O)cc2)c2cnc3c(ccn3C)c2)cn1-c1cc2c(cc1C(=O)N1Cc3ccccc3C[C@H]1CN1CCOCC1)OCO2` [Example 206, N-(4-Hydroxyphenyl)-5-methyl-N-(1-methyl-1H-pyrrolo[2,3-b]pyridin-5-yl)-1-(6-{[(3S)-3-(morpholin-4-ylmethyl)-3,4-dihydroisoquinolin-2(1H)-yl]-carbonyl}-1,3-benzodioxol-5-yl)-1H-pyrrole-3-carboxamide hydrochloride]: 16.7 nM and 72.4 nM.
As to `Cl.Cn1ccc2cc(N(C(=O)c3cn(-c4cc5c(cc4C(=O)N4Cc6ccccc6C[C@H]4CN4CCOCC4)OCO5)c4c3CCCC4)c3ccc(O)cc3)cnc21` [Example 207, N-(4-Hydroxyphenyl)-N-(1-methyl-1H-pyrrolo[2,3-b]pyridin-5-yl)-1-(6-{[(3S)-3-(morpholin-4-ylmethyl)-3,4-dihydroisoquinolin-2(1H)-yl]carbonyl}-1,3-benzodioxol-5-yl)-4,5,6,7-tetrahydro-1H-indole-3-carboxamide hydrochloride], the values for the 50% inhibitory concentration (IC50) (at Bcl-2 protein; in experiment [1]) were 20.3 nM and 22.2 nM, respectively. Moreover, the “Activation factor ± SEM (versus control)” value in experiment [2] (setting [3]) stood at 14.6 ± 4.4.
Regarding `Cc1c(C(=O)N(c2ccc(O)cc2)c2cnc3c(ccn3C)c2)cn(-c2cc(Cl)ccc2C(=O)N2Cc3ccccc3C[C@H]2CN2CCOCC2)c1C` [Example 209, 1-(5-Chloro-2-{[(3S)-3-(morpholin-4-ylmethyl)-3,4-dihydroisoquinolin-2(1H)-yl]carbonyl}phenyl)-N-(4-hydroxyphenyl)-4,5-dimethyl-N-(1-methyl-1H-pyrrolo[2,3-b]pyridin-5-yl)-1H-pyrrole-3-carboxamide hydrochloride], the IC50 at Bcl-2 protein was 4.1 nM; in experiment [1] it was 62.9 nM.
As for `Cc1c(C(=O)N(c2ccc(O)cc2)c2cnc3c(c2)CCN3C)cn(-c2cc(Cl)ccc2C(=O)N2Cc3ccccc3C[C@H]2CN2CCOCC2)c1C.Cl` [Example 210, 1-(5-Chloro-2-{[(3S)-3-(morpholin-4-ylmethyl)-3,4-dihydroisoquinolin-2(1H)-yl]carbonyl}phenyl)-N-(4-hydroxyphenyl)-4,5-dimethyl-N-(1-methyl-2,3-dihydro-1H-pyrrolo[2,3-b]pyridin-5-yl)-1H-pyrrole-3-carboxamide hydrochloride], the figures for the IC50 (at Bcl-2 protein; in experiment [1]) were 3.1 nM and 64.7 nM, respectively. The “Activation factor ± SEM (versus control)” value in experiment [2] (125 mg/kg, tumour removed after 2 h) is 36.3 ± 13.3.
As to `Cc1c(C(=O)N(c2ccc(O)cc2)c2cc(C#N)n(C)c2C)cn(-c2cc(Cl)ccc2C(=O)N2Cc3ccccc3C[C@H]2CN2CCOCC2)c1C.Cl` [Example 211, 1-(5-Chloro-2-{[(3S)-3-(morpholin-4-ylmethyl)-3,4-dihydroisoquinolin-2(1H)-yl]carbonyl}phenyl)-N-(5-cyano-1,2-dimethyl-1H-pyrrol-3-yl)-N-(4-hydroxyphenyl)-4,5-dimethyl-1H-pyrrole-3-carboxamide hydrochloride], the IC50 is 3.7 nM on Bcl-2 protein and 46.9 nM in experiment [1]. Moreover, the “Activation factor ± SEM (versus control)” value in experiment [2] (setting [3]) is on record as 94.7 ± 9.8.
